# According to ChEMBL document CHEMBL1137450, “Dual serotonin transporter inhibitor/histamine H3 antagonists: development of rigidified H3 pharmacophores” (Bioorg Med Chem Lett, 2007):
# The source made the active and inactive calls. The calls are words filed in the database; no cut-off is given here.
# Key:
# Mus musculus [1] = assay: Effect on 5HTP induced mouse head twitch model at 10 mg/kg after 1 hr; format: functional, organism-based; parameters: dose 10 mg/kg
# Mus musculus [2] = assay: Effect on 5HTP induced mouse head twitch model at 10 mg/kg after 24 hrs; format: functional
# Histamine H3 receptor = Histamine H3 receptor (Homo sapiens, UniProt Q9Y5N1); assay: Antagonistic activity at H3 receptor expressed in […] cells assessed as forskolin stimulated cyclic AMP accumulation by functional assay; format: cell-based, SK-N-MC; details: read-out: pA2 (converted)
# Sequence of Histamine H3 receptor (Q9Y5N1 whole entry): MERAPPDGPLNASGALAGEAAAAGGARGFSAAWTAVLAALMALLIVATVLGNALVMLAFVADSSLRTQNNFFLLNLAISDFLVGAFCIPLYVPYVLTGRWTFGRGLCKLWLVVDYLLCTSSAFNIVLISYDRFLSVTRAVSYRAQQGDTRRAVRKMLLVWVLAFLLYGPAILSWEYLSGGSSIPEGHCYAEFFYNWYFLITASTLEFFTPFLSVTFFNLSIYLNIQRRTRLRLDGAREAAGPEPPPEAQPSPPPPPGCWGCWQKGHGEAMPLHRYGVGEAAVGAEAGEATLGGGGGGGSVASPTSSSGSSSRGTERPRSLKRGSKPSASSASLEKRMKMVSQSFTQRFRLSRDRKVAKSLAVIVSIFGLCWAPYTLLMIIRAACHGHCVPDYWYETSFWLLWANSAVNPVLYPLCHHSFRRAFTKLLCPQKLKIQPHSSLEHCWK
# [3] = target: Sodium-dependent serotonin transporter (Homo sapiens, UniProt P31645); assay: Binding affinity at human SERT
# Sequence of Sodium-dependent serotonin transporter (Homo sapiens, UniProt P31645) (P31645 whole entry): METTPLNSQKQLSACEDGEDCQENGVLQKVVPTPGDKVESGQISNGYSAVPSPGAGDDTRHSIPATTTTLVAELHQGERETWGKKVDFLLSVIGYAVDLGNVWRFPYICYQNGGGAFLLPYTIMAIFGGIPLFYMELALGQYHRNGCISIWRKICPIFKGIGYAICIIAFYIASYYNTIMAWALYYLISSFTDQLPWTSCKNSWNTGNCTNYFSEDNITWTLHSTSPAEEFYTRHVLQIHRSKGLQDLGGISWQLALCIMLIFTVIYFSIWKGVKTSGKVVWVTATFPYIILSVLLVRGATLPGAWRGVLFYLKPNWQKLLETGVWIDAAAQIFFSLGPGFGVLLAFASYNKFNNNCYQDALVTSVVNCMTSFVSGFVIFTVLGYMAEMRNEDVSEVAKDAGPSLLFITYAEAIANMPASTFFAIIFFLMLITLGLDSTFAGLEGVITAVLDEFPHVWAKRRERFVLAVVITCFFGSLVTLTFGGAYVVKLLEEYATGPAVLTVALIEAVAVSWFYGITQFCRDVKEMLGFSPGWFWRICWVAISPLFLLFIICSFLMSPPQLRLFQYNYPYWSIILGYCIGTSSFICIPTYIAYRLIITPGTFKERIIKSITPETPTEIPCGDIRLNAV
# [4] = target: Sodium-dependent serotonin transporter (Rattus norvegicus, UniProt P31652); assay: Binding affinity at rat SERT
# Sequence of Sodium-dependent serotonin transporter (Rattus norvegicus, UniProt P31652) (P31652 whole entry): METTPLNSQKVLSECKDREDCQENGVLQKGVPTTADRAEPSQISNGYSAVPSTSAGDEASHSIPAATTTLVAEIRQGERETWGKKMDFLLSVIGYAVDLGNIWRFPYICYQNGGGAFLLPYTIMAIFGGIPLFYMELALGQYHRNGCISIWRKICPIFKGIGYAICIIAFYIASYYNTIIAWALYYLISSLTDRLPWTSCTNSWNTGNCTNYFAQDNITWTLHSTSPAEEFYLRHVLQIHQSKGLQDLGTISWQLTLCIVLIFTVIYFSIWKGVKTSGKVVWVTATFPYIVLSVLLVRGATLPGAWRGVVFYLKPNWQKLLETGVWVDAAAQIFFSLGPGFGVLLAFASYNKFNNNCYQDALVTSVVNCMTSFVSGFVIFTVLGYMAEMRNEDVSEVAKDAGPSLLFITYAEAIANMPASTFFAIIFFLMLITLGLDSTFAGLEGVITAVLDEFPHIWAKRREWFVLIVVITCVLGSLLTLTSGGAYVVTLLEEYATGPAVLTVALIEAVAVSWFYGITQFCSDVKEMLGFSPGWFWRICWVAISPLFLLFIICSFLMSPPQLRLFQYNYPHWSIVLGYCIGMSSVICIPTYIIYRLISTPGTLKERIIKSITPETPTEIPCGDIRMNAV
Structure (SMILES),Activity (Mus musculus [1]),Activity (Mus musculus [2]),Kb (Histamine H3 receptor),Ki [3],Ki [4]
CSc1ccc(C2CN(C)Cc3cc(Oc4ccc(CN5CCCCC5)cn4)ccc32)cc1 (centres undefined),inactive,272%,20 nM,–,–
CN(C)CCC(Oc1ccccc1)c1ccc(OCCCN2CCCCC2)cc1 (centres undefined),–,–,–,25.7 nM,–
CSc1ccc(C2CN(C)Cc3cc(Oc4nc(CN5CCCCC5)cs4)ccc32)cc1 (centres undefined),–,–,20 nM,–,–
CSc1ccc(C2CN(C)Cc3cc(Oc4nc(CN5CCOCC5)cs4)ccc32)cc1 (centres undefined),–,–,–,15.5 nM,14 nM
CSc1ccc(C2CN(C)Cc3cc(Oc4cncc(CN5CCCCC5)c4)ccc32)cc1 (centres undefined),–,–,–,8.3 nM,9.7 nM
